Experimental data taken from ChEMBL document CHEMBL6182949 (J Med Chem, 2025).
≈ marks a conversion by molar mass, not a printed value. Calls of active or inactive are those of the source. The calls are words filed in the database; no cut-off is given here.

Legend:
[1] = AUClast in Sprague-Dawley rat at 10 mg/kg, po measured up to 24 hrs by LC-MS/MS analysis; assay type: ADME, organism-based; conditions: in vivo
[2] = test system: Mus musculus; assay: Anti-arthritic activity against collagen-induced arthritis DBA/1 mouse model assessed as reduction in pathological score at 100 mg/kg, po administered for 14 days; assay type: functional, organism-based; conditions: time 14.0 day
[3] = Cmax in male C57BL/6 mouse at 10 mg/kg, po measured up to 24 hrs by LC-MS/MS analysis; assay type: ADME, organism-based; conditions: in vivo
[4] = target: Protein cereblon/Interleukin-1 receptor-associated kinase 4 (Mus musculus) (UniProt Q8C7D2+Q8R4K2); assay: PROTAC activity at CRBN/IRAK4 in mouse PBMC cells assessed as induction of IRAK4 degradation incubated for 24 hrs by HiBiT lytic reagent based analysis relative to control; assay type: cell-based
Protein cereblon/Interleukin-1 receptor-associated kinase 4 (Mus musculus), sequence (Q8C7D2 whole entry, looked up): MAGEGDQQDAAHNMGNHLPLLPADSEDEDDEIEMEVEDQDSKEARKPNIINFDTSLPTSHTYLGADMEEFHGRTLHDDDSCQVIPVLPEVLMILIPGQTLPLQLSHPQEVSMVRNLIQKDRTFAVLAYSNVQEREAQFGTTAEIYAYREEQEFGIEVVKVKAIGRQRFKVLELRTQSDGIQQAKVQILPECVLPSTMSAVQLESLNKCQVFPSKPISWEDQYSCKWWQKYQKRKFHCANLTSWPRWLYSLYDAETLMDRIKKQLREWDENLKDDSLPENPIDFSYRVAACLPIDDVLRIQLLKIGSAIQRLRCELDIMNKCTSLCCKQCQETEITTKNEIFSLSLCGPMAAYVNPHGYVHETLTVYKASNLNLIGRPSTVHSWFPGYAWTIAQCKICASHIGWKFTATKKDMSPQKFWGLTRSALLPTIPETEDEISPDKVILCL
Protein cereblon/Interleukin-1 receptor-associated kinase 4 (Mus musculus), sequence (Q8R4K2 whole entry, looked up): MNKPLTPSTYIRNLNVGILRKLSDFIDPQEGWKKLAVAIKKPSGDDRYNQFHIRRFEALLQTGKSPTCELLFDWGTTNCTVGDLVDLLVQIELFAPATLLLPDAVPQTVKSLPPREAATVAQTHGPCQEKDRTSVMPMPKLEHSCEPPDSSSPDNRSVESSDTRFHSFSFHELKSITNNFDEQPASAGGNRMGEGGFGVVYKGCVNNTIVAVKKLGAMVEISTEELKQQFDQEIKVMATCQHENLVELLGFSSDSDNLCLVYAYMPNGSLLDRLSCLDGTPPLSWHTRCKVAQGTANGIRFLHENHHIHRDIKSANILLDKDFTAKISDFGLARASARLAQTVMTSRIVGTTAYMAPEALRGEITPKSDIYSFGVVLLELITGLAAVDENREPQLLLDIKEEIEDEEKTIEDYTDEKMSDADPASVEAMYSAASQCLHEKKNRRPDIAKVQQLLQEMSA

[5] = Permeability across apical to basal side in human Caco-2 cells incubated for 120 mins by LC-MS/MS analysis; assay type: ADME, cell-based; conditions: read-out: permeability
[6] = Metabolic stability in cynomolgus monkey liver microsome assessed as half life at 1 uM measured up to 60 mins in presence of NADPH by LC-MS/MS analysis; assay type: ADME, Macaca fascicularis; conditions: liver microsomes
[7] = test system: Mus musculus; assay: Anti-psoriasis effect in IMQ-induced C57BL/6 mouse assessed as reduction in ear thickness at 100 mg/kg administered topically twice daily for 6 days and measured after 24 hrs; assay type: functional, organism-based; conditions: time 7.0 day
[8] = Clearance in male C57BL/6 mouse at 2 mg/kg, iv measured up to 24 hrs by LC-MS/MS analysis; assay type: ADME, organism-based; conditions: in vivo
[9] = target: T1, CYP1A2 (Homo sapiens, UniProt P05177); assay: Inhibition of CYP1A2 in human liver microsome using phenacetin as substrate at 10 uM preincubated for 5 mins followed by NADPH addition and measured after 20 mins by LC-MS/MS analysis relative to control; assay type: ADME; conditions: human liver microsomes, probe phenacetin, time 25 min
T1 sequence (P05177 whole entry): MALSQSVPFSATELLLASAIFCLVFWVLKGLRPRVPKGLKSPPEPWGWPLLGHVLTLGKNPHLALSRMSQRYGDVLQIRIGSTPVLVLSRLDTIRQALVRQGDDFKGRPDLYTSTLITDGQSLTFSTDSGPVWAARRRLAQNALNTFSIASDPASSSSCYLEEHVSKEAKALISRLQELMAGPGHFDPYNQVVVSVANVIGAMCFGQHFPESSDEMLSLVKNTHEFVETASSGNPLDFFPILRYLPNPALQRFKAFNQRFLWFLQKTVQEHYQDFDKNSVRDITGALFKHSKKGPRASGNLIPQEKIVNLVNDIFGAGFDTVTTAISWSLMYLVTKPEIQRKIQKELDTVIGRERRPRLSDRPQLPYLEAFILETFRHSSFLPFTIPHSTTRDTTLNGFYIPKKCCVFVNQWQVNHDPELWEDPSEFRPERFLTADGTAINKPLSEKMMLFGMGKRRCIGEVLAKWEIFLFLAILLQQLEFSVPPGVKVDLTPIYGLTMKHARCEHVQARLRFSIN

[10] = target: Protein cereblon/Sal-like protein 4 (Homo sapiens) (UniProt Q96SW2+Q9UJQ4); assay: PROTAC activity at CRBN/SALL4 in human PBMC cells assessed as induction of SALL4 degradation at 1 uM by Western blot analysis; assay type: cell-based
Protein cereblon/Sal-like protein 4 (Homo sapiens), sequence (Q96SW2 whole entry, looked up): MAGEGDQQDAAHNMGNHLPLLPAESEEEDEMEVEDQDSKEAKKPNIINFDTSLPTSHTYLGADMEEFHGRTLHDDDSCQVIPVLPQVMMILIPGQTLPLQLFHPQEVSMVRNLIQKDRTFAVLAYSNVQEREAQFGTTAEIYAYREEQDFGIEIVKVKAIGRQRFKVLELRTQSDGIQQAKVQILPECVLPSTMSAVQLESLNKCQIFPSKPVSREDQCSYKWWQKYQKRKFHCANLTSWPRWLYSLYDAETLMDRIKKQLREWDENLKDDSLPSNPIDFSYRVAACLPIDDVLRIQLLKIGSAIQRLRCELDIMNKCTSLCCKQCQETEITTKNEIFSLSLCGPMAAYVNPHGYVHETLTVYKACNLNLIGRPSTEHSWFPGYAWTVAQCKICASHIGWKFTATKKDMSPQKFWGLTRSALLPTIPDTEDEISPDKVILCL
Protein cereblon/Sal-like protein 4 (Homo sapiens), sequence (Q9UJQ4 whole entry, looked up): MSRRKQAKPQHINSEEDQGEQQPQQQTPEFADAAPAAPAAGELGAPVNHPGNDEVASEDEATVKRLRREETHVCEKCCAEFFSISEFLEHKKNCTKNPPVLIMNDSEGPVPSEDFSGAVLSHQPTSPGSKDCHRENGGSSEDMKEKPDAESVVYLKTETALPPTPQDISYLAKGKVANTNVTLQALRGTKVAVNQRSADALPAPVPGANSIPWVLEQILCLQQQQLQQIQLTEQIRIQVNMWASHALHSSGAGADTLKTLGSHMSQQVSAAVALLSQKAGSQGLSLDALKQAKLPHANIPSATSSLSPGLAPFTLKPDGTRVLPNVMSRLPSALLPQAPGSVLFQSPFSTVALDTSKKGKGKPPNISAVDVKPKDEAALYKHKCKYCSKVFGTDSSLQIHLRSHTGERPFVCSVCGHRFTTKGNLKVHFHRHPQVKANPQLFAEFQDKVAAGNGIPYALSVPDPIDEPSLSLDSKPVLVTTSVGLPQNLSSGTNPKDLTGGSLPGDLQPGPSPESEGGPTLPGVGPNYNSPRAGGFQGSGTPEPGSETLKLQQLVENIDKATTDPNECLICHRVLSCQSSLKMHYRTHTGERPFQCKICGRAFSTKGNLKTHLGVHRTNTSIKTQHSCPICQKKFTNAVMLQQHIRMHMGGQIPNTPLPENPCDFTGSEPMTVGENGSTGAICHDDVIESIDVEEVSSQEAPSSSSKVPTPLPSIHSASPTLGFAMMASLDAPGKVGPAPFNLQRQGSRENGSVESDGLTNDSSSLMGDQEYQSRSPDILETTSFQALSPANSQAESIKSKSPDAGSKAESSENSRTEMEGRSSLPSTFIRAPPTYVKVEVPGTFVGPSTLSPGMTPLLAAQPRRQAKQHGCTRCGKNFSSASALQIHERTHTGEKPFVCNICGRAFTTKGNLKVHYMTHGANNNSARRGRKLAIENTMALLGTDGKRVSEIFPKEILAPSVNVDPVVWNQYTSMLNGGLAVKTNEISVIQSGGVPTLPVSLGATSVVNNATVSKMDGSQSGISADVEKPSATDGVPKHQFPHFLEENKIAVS

[11] = target: T2, CYP2C8 (Homo sapiens, UniProt P10632); assay: Inhibition of CYP2C8 in human liver microsome using amodiaquine as substrate at 10 uM preincubated for 5 mins followed by NADPH addition and measured after 5 mins by LC-MS/MS analysis relative to control; assay type: ADME; conditions: human liver microsomes, probe amodiaquine, time 10 min
T2 sequence (P10632 whole entry): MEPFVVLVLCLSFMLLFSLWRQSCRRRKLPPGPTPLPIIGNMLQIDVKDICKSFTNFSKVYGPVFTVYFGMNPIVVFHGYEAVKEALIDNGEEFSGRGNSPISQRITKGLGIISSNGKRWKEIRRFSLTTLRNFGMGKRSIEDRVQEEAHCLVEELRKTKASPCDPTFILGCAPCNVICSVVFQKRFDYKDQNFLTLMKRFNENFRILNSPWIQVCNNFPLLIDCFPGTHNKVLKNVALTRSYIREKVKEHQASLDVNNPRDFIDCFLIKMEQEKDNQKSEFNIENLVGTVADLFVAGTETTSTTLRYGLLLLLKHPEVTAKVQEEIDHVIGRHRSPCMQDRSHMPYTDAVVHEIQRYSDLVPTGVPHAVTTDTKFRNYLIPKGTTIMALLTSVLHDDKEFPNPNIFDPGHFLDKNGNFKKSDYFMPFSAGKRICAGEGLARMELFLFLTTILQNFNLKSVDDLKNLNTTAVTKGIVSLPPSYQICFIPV

[12] = Metabolic stability rat hepatocyte assessed as half life at 1 uM measured up to 120 mins by LC-MS/MS analysis; assay type: ADME, cell-based; conditions: hepatocytes
[13] = target: Protein cereblon/Zinc finger protein Aiolos (Homo sapiens) (UniProt Q96SW2+Q9UKT9); assay: PROTAC activity at CRBN/IKZF3 in human PBMC cells assessed as induction of SALL4 degradation at 1 uM by Western blot analysis; assay type: cell-based
Protein cereblon/Zinc finger protein Aiolos (Homo sapiens), sequence (Q96SW2 whole entry, looked up): as the sequence (Q96SW2 whole entry, looked up) above
Protein cereblon/Zinc finger protein Aiolos (Homo sapiens), sequence (Q9UKT9 whole entry, looked up): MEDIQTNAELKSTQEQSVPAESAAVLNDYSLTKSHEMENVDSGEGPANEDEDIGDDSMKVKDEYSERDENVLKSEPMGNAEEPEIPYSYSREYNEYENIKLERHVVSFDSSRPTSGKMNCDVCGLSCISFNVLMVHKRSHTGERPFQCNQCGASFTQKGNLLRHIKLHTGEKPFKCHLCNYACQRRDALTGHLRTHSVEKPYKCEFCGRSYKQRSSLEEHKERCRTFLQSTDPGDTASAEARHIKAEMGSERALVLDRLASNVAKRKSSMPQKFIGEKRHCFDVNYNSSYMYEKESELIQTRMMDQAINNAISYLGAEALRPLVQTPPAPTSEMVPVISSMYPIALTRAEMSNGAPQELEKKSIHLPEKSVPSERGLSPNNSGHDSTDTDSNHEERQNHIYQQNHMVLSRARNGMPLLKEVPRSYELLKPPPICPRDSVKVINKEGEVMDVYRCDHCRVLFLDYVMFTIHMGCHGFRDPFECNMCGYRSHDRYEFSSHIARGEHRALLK

[14] = Metabolic stability dog hepatocyte assessed as half life at 1 uM measured up to 120 mins by LC-MS/MS analysis; assay type: ADME, cell-based, Canis lupus familiaris; conditions: hepatocytes
[15] = target: Protein cereblon/Interleukin-1 receptor-associated kinase 4 (Macaca fascicularis) (UniProt A0A2K5UTB3+A0A2K5V3Y9); assay: PROTAC activity at CRBN/IRAK4 in cynomolgus monkey PBMC assessed as reduction in IRAK4 level measured at 48 hrs by immunoblotting analysis; assay type: cell-based; parameters: scale not given: the % may be the effect or the level left
Protein cereblon/Interleukin-1 receptor-associated kinase 4 (Macaca fascicularis), sequence (A0A2K5UTB3 1-488): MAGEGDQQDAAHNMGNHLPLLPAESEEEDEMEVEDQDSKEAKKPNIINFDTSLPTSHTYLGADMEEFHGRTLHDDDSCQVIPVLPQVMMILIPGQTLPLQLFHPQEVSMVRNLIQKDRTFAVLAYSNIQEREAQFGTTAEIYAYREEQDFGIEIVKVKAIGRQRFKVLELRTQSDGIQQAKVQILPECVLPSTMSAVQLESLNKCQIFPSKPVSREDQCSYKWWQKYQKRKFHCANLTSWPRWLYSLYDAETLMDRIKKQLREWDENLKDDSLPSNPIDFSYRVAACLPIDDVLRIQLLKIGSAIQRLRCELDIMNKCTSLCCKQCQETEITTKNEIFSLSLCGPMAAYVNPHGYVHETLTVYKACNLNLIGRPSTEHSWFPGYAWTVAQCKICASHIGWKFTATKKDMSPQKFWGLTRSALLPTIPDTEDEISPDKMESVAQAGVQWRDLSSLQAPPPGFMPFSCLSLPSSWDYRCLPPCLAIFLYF
Protein cereblon/Interleukin-1 receptor-associated kinase 4 (Macaca fascicularis), sequence (A0A2K5V3Y9 1-460 partner): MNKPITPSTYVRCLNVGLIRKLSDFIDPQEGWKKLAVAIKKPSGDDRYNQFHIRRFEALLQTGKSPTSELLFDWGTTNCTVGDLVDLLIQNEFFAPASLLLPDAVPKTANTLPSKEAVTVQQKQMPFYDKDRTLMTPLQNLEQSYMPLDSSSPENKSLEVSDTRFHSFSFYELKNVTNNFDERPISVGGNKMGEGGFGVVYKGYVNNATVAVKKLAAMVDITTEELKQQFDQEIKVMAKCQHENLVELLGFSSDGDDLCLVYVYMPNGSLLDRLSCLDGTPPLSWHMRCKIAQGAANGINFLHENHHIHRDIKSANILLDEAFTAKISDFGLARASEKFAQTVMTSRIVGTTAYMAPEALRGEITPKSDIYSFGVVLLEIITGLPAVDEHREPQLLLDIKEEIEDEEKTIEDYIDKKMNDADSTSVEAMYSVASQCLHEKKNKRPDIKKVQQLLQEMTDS

[16] = Cmax in male C57BL/6 mouse at 2 mg/kg, iv measured up to 24 hrs by LC-MS/MS analysis; assay type: ADME, organism-based; conditions: in vivo
[17] = Kinetic solubility of compound in FaSSIF at pH 6.5 incubated for 2 hr by LC-MS analysis; assay type: physicochemical; conditions: read-out: Kinetic_solubility
[18] = AUClast in Beagle dog at 2 mg/kg, iv measured up to 24 hrs by LC-MS/MS analysis; assay type: ADME, organism-based, Canis lupus familiaris; conditions: in vivo
[19] = AUClast in Beagle dog at 10 mg/kg, po measured up to 24 hrs by LC-MS/MS analysis; assay type: ADME, organism-based, Canis lupus familiaris; conditions: in vivo
[20] = Metabolic stability in mouse liver microsome assessed as half life at 1 uM measured up to 60 mins in presence of NADPH by LC-MS/MS analysis; assay type: ADME; conditions: liver microsomes
[21] = Half life in cynomolgus monkey at 1 mg/kg, iv measured up to 24 hrs by LC-MS/MS analysis; assay type: ADME, organism-based, Macaca fascicularis; conditions: in vivo
[22] = AUClast in cynomolgus monkey at 20 mg/kg, po measured up to 24 hrs by LC-MS/MS analysis; assay type: ADME, organism-based, Macaca fascicularis; conditions: in vivo
[23] = Metabolic stability human hepatocyte assessed as half life at 1 uM measured up to 120 mins by LC-MS/MS analysis; assay type: ADME, cell-based; conditions: hepatocytes
[24] = target: CYP2D6 (Homo sapiens, UniProt P10635); assay: Inhibition of CYP2D6 in human liver microsome using dextromethorphan as substrate at 10 uM preincubated for 5 mins followed by NADPH addition and measured after 10 mins by LC-MS/MS analysis relative to control; assay type: ADME; conditions: human liver microsomes, probe dextromethorphan, time 15 min
CYP2D6, sequence (P10635 whole entry): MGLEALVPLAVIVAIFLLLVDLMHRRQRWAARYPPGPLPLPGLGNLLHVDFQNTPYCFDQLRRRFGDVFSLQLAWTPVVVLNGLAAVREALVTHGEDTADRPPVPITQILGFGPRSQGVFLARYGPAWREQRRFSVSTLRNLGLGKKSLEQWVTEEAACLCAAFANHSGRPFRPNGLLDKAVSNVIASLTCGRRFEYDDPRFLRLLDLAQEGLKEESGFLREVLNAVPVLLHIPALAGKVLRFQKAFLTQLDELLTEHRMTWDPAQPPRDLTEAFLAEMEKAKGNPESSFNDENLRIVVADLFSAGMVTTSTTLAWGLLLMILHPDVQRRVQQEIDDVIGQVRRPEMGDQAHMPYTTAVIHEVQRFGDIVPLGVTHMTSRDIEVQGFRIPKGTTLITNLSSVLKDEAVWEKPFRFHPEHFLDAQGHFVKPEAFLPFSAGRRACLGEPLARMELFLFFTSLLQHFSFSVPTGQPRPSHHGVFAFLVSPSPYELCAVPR

In the case of `Cn1c(=O)n(C2CCC(=O)NC2=O)c2cccc(C#CCO[C@H]3CC[C@H](CN4CCC5(CC4)Cc4cc(NC(=O)c6coc7cccnc67)c(N6CCC(CO)CC6)cc4O5)CC3)c21` (some centres undefined), the AUClast [1] is reported as 7093 ng·h/mL, the Activity [2] is reported as “Active” and the Cmax [3] is reported as 1070 ng/mL. For the same compound, the Emax [4] was 82%, the Papp A→B at 2 h [5] was 0.09 ×10⁻⁶ cm/s and the half-life at 1 µM [6] was 1.98 h. The Activity [7] was “Active”, the clearance [8] was 3.13 mL/min/kg and the inhibition at 20 min, 10 µM [9] was 8.32%. The Activity [10] was “inactive”, the inhibition at 5 min, 10 µM [11] was 12.4% and the half-life at 1 µM [12] was 2.65 h. For the same compound, the Activity [13] was “inactive”, the half-life at 1 µM [14] was greater than 6.18 h and the Activity [15] was 83%. For the same compound, the Cmax [16] was 1870 ng/mL, the solubility kinetic at 2 h [17] was 13.3 µg/mL (≈ 15.3 µM) and the AUC(0-t) at 24 h [18] was 2670 ng·h/mL. For the same compound, the AUC(0-t) at 24 h [19] was 6990 ng·h/mL, the half-life at 1 µM [20] was 1.52 h and the half-life [21] was 8.67 h. It also gave an AUC(0-t) at 24 h [22] of 4000 ng·h/mL, a half-life at 1 µM [23] of 2.5 h and an inhibition at 10 min, 10 µM [24] of 13.8%.
